Results on 57 compounds are retold here after patent EP2697230B1, “COMPOUNDS FOR THE TREATMENT OF HEPATITIS C” (priority 2011, dated 2012).

The subject of the assay is HCV pseudoparticles, genotype 1a HCV E1 and E2 envelope (H77C isolate). Nature of the assay: HCV pseudoparticle infection assay (luciferase reporter, Huh7 cells). In kind it is cell-based.
Setting [1] is: Hepatitis C virus, Huh-7, 48 h, read-out: EC50 (nM) 1a (H77C), class symbol, HCV pseudoparticles genotype 1a (H77C), luciferase 2 days after infection.
Setting [2] is: Hepatitis C virus, Huh-7, 48 h, read-out: EC50 (nM) 1a (H77C), numeric value, HCV pseudoparticles genotype 1a (H77C), luciferase 2 days after infection.
Where [3] appears, read: class symbol, HCV pseudoparticles genotype 1a (H77C), luciferase 2 days after infection, read-out: EC50 (nM) 1a (H77C).
Setting [4] is: numeric value, HCV pseudoparticles genotype 1a (H77C), luciferase 2 days after infection, read-out: EC50 (nM) 1a (H77C).

The structures appear in SMILES notation. Like-named read-outs stand apart in the source and are kept apart here.

For the compound `CC(=O)N1CCCCCCCCNc2nc(nc(OCC(F)(F)F)n2)Nc2ccc(cc2)C(=O)NCCC1` [Example 9009], the EC50 under setting [1] fell in the range of 0.1 to 100 nM.
For the compound `CC(=O)N1CCCCNC(=O)c2ccc(cc2)Nc2nc(nc(OCC(F)(F)F)n2)NCc2ccc(cc2)OCC1` [Example 4002], the EC50 under setting [1] is 100 to 1000 nM and the EC50 under setting [2] was 105 nM.
`COC(=O)N1CCCCNC(=O)c2ccc(cc2)Nc2nc(nc(OCC(F)(F)F)n2)NCc2ccc(cc2)OCC1` [Example 4013]: the EC50 under setting [1] was 0.1 to 100 nM.
For `CNC(=O)N1CCCCNC(=O)c2ccc(cc2)Nc2nc(nc(OCC(F)(F)F)n2)NC2(CC2)c2ccc(cc2)OCCC1` [Example 5004], the EC50 under setting [1] was 0.1 to 100 nM.
With `O=C1CNC(=O)CNC(=O)c2ccc(cc2)Nc2nc(nc(OCC(F)(F)F)n2)NCc2ccc(cc2)NC(=O)CN1` [Example 3003], the half-maximal effective concentration (EC50) under setting [1] was 100 to 1000 nM.
On the same count and under the same terms, for `CCCN1CCCNC(=O)c2ccc(cc2)Nc2nc(nc(OCC(F)(F)F)n2)NCc2ccc(cc2)OCCC1` [Example 6027] the value was 0.1 to 100 nM; for `CC(C)OC(=O)N1CCCOc2ccc(cc2)CNc2nc(nc(OCC(F)(F)F)n2)Nc2ccc(cc2)C(=O)NCC(C)(C)C1` [Example 6035], 0.1 to 100 nM.
Regarding `O=C1NCCCCNCCOc2ccc(cc2)CNC2=N/C(=N\c3ccc1cc3)N=C(OCC(F)(F)F)N2` [Example 4001, (2E)-5-(2,2,2-trifluoroethoxy)-14-oxa-2,4,6,8,17,22,31-heptaazatetracyclo[22.2.2.2∼10,13∼.1∼3,7∼]hentriaconta-1(26),2,4,7(31),10,12,24,27,29-nonaen-23-one], under setting [1], the EC50 fell in the range of 0.1 to 100 nM.
`CNC(=O)N1CCCOc2ccc(cc2)CNc2nc(nc(OCC(F)(F)F)n2)Nc2ccc(cc2)C(=O)NCC(C)(C)C1` [Example 6038]: under setting [1], the concentration giving a half-maximal response (EC50) was in the range of 0.1 to 100 nM.
Turning to `O=C1NCc2ccc(cc2)Nc2nc(nc(OCC(F)(F)F)n2)NCc2cccc(c2)CNC(=O)OCCOCCOCCO1` [Example 0068], the EC50 under setting [1] fell in the range of 100 to 1000 nM.
As for `CN1CCCN(C)CCCN(C)C(=O)c2ccc(cc2)Nc2nc(nc(OCC(F)(F)F)n2)NCc2ccc(cc2)C(=O)N(C)CCC1` [Example 0041], the EC50 by setting is: under setting [1], 1000 to 5000 nM; under setting [2], 21600 nM.
With `CC(C)C(=O)N1CCCCOc2ccc(cc2)CNc2nc(nc(OCC(F)(F)F)n2)Nc2ccc(cc2)C(=O)NCCC1` [Example 4020], the EC50 under setting [1] is 0.1 to 100 nM.
In the case of `CC(C)(C)OC(=O)N1CCCCNC(=O)c2ccc(cc2)Nc2nc(nc(OCC(F)(F)F)n2)NCc2ccc(cc2)OCC1` [Example 4016], the 50% effective concentration (EC50) under setting [1] lay in the range of 0.1 to 100 nM.
As for `O=C1CNC(=O)c2ccc(cc2)Nc2nc(nc(OCC(F)(F)F)n2)NCc2ccc(cc2)NC(=O)CN1` [Example 3002], under setting [1], the half-maximal effective concentration (EC50) was in the range of 100 to 1000 nM.
Consider `O=C1NCCCOCCCCOCCCNc2nc(nc(OCC(F)(F)F)n2)Nc2ccc1cc2` [Example 0004], for which the EC50 runs as follows: under setting [3], 0.1 to 100 nM; under setting [4], 48.4 nM.
Consider `O=C1NCc2ccc(cc2)CNc2nc(nc(OCC(F)(F)F)n2)Nc2ccc(cc2)CNC(=O)Nc2cccc(c2)N1` [Example 0051], for which the EC50 under setting [1] was 100 to 1000 nM.
With `O=C1NCCCCCCCCCCNc2nc(nc(OCC(F)(F)F)n2)Nc2ccc1cc2` [Example 0003], the EC50 is 100 to 1000 nM under setting [3] and 101 nM under setting [4].
Consider `O=C1NCCCNCCCOc2ccc(cc2)CNc2nc(nc(OCC(F)(F)F)n2)Nc2ccc1cc2` [Example 6011], for which the EC50 under setting [1] is 0.1 to 100 nM.
Take `COC(=O)N1CCCCOc2ccc(cc2)CNc2nc(nc(OCC(F)(F)F)n2)Nc2ccc(cc2)C(=O)NCCC1` [Example 4023]: the EC50 under setting [1] was 0.1 to 100 nM.
Take `CC(C)OC(=O)N1CCCCOc2ccc(cc2)CNc2nc(nc(OCC(F)(F)F)n2)Nc2ccc(cc2)C(=O)NCCC1` [Example 4025]: the EC50 under setting [1] fell in the range of 0.1 to 100 nM.
`CN(C)CCCN1CCCNC(=O)c2ccc(cc2)Nc2nc(nc(OCC(F)(F)F)n2)Nc2ccc(cc2)C1=O` [Example 0023]: the EC50 under setting [1] is 100 to 1000 nM.
On to `O=C1NCCCCCCNC(=O)c2ccc(cc2)Nc2nc(nc(OCC(F)(F)F)n2)NCc2ccc1cc2` [Example 0032], for which the EC50 under setting [1] lay within 100 to 1000 nM.
`CC1(C)CNCCCOc2ccc(cc2)CNc2nc(nc(OCC(F)(F)F)n2)Nc2ccc(cc2)C(=O)NC1` [Example 6024]: the EC50 under setting [1] was in the range of 0.1 to 100 nM.
In the case of `O=C1NCCCNCCCCOc2ccc(cc2)CNc2nc(nc(OCC(F)(F)F)n2)Nc2ccc1cc2` [Example 4017], the concentration giving a half-maximal response (EC50) under setting [1] lay within 0.1 to 100 nM.
With `CC(C)(C)OC(=O)N1CCCCOc2ccc(cc2)CNc2nc(nc(OCC(F)(F)F)n2)Nc2ccc(cc2)C(=O)NCCC1` [Example 4026], the EC50 under setting [1] was in the range of 0.1 to 100 nM.
Turning to `O=C1NCCCN2CCN(CCCNC(=O)c3ccc(cc3)Nc3nc(nc(OCC(F)(F)F)n3)NCc3ccc1cc3)CC2` [Example 0039], under setting [1], the EC50 is 100 to 1000 nM.
The same measure, in the same setting: next, `COC(=O)N1CCCOc2ccc(cc2)CNc2nc(nc(OCC(F)(F)F)n2)Nc2ccc(cc2)C(=O)NCC1` [Example 6006]: 0.1 to 100 nM; `O=C1NCc2ccc(cc2)Nc2nc(nc(OCC(F)(F)F)n2)NCc2cccc(c2)CNC(=O)c2ccc1cc2` [Example 0060]: 100 to 1000 nM.
On the same count and under the same terms, next, `CC(=O)N1CCCCOc2ccc(cc2)CNc2nc(nc(OCC(F)(F)F)n2)Nc2ccc(cc2)C(=O)NCCC1` [Example 4018]: 0.1 to 100 nM; `CC(C)C(=O)N1CCCCNC(=O)c2ccc(cc2)Nc2nc(nc(OCC(F)(F)F)n2)NCc2ccc(cc2)OCC1` [Example 4004]: 0.1 to 100 nM.
For `CC(C)(C)NC(=O)N1CCCCOc2ccc(cc2)CNc2nc(nc(OCC(F)(F)F)n2)Nc2ccc(cc2)C(=O)NCCC1` [Example 4034], the EC50 under setting [1] is 0.1 to 100 nM.
Turning to `CC1(C)C(=O)NCc2ccc(cc2)CNc2nc(nc(OCC(F)(F)F)n2)Nc2ccc(cc2)CNC1=O` [Example 0071], the EC50 under setting [1] fell in the range of 100 to 1000 nM.
Regarding `CC(C)(C)OC(=O)N1CCCNC(=O)c2ccc(cc2)Nc2nc(nc(OCC(F)(F)F)n2)NCc2ccc(cc2)OCCC1` [Example 6017], the EC50 under setting [1] was 0.1 to 100 nM.
`CC(C)OC(=O)N1CCCCNC(=O)c2ccc(cc2)Nc2nc(nc(OCC(F)(F)F)n2)NCc2ccc(cc2)OCC1` [Example 4015]: the EC50 under setting [1] lay within 0.1 to 100 nM.
The same measure, in the same setting: for `CC(C)(C)NC(=O)N1CCCCCCCCNc2nc(nc(OCC(F)(F)F)n2)Nc2ccc(cc2)C(=O)NCCC1` [Example 9008] the value was 0.1 to 100 nM.
With `CC(C)(C)NC(=O)N1CCCCNC(=O)c2ccc(cc2)Nc2nc(nc(OCC(F)(F)F)n2)NCc2ccc(cc2)OCC1` [Example 4009], the half-maximal effective concentration (EC50) by setting is: under setting [1], 0.1 to 100 nM; under setting [2], 8.47 nM.
In the case of `CC1(C)CNC(=O)c2ccc(cc2)Nc2nc(nc(OCC(F)(F)F)n2)NCc2ccc(cc2)OCCCN(C(=O)OC(C)(C)C)C1` [Example 6036], the EC50 under setting [1] lay in the range of 0.1 to 100 nM.
As for `O=C1NS(=O)(=O)C/C=C/CCCOc2ccc(cc2)CNc2nc(nc(OCC(F)(F)F)n2)Nc2ccc1cc2` [Example 3005], under setting [1], the concentration for a half-maximal effect (EC50) is 1000 to 5000 nM.
With `COC(=O)N1CCCCCCCCNc2nc(nc(OCC(F)(F)F)n2)Nc2ccc(cc2)C(=O)NCCC1` [Example 9003], the half-maximal effective concentration (EC50) under setting [1] lay in the range of 0.1 to 100 nM.
In the case of `CCCOC(=O)N1CCCCCCCCNc2nc(nc(OCC(F)(F)F)n2)Nc2ccc(cc2)C(=O)NCCC1` [Example 9004], the EC50 under setting [1] lay in the range of 0.1 to 100 nM.
As for `O=C1NCCNCCNc2nc(nc(OCC(F)(F)F)n2)Nc2ccc1cc2` [Example 0001], the EC50 reads like this: under setting [3], 1000 to 5000 nM; under setting [4], 4200 nM.
On to `CC(C)CN1CCCNC(=O)c2ccc(cc2)Nc2nc(nc(OCC(F)(F)F)n2)NCc2ccc(cc2)OCCC1` [Example 6020], for which the EC50 under setting [1] fell in the range of 0.1 to 100 nM.
Turning to `CC(C)(C)OC(=O)N1CCCCNC(=O)c2ccc(cc2)Nc2nc(nc(OCC(F)(F)F)n2)NC2(CC2)c2ccc(cc2)OCCC1` [Example 5006], under setting [1], the EC50 was 0.1 to 100 nM.
As for `O=C1NCCCCCCCCNc2nc(nc(OCC(F)(F)F)n2)Nc2ccc1cc2` [Example 0002], the EC50 under setting [3] was in the range of 0.1 to 100 nM.
Consider `CN1CCCN(C)CCCN(C)C(=O)c2ccc(cc2)Nc2nc(nc(OCC(F)(F)F)n2)Nc2ccc(cc2)C(=O)N(C)CCC1` [Example 0024], for which the EC50 is, setting by setting: under setting [1], 1000 to 5000 nM; under setting [2], 16300 nM.
Consider `O=C1NCCCCNC(=O)NCc2ccc(cc2)Nc2nc(nc(OCC(F)(F)F)n2)NCc2ccc(cc2)CN1` [Example 0053], for which the EC50 under setting [1] is 100 to 1000 nM.
Still for that read-out and setting: next, `CC(C)NC(=O)N1CCCOc2ccc(cc2)CNc2nc(nc(OCC(F)(F)F)n2)Nc2ccc(cc2)C(=O)NCC(C)(C)C1` [Example 6037]: 0.1 to 100 nM; `O=C1NCCCCCCNC(=O)NCc2ccc(cc2)Nc2nc(nc(OCC(F)(F)F)n2)NCc2ccc(cc2)CN1` [Example 0055]: 100 to 1000 nM; `CCOC(=O)N1CCCCOc2ccc(cc2)CNc2nc(nc(OCC(F)(F)F)n2)Nc2ccc(cc2)C(=O)NCCC1` [Example 4024]: 0.1 to 100 nM.
On the same count and under the same terms, for `CC1(C)NC(=O)NCc2ccc(cc2)CNc2nc(nc(OCC(F)(F)F)n2)Nc2ccc(cc2)CNC(=O)NC(C)(C)c2cccc1c2` [Example 0057] the value was 100 to 1000 nM; for `O=C1NCc2ccc(cc2)Nc2nc(nc(OCC(F)(F)F)n2)NCc2cccc(c2)CNC(=O)c2ccccc21` [Example 0059], 0.1 to 100 nM.
For `O=C1NCCCCNC(=O)C2(CC2)Nc2nc(nc(OCC(F)(F)F)n2)Nc2ccc1cc2` [Example 0006], the EC50 under setting [3] lay in the range of 1000 to 5000 nM.
With `O=C1CCCCNC(=O)c2ccc(cc2)Nc2nc(nc(OCC(F)(F)F)n2)NCc2ccc(cc2)OC/C=C/S(=O)(=O)N1` [Example 3012], the EC50 under setting [1] was in the range of 100 to 1000 nM and the EC50 under setting [2] was found to be 275 nM.
With `CNC(=O)N1CCCCOc2ccc(cc2)CNc2nc(nc(OCC(F)(F)F)n2)Nc2ccc(cc2)C(=O)NCCC1` [Example 4030], the EC50 under setting [1] is 0.1 to 100 nM.
As to `O=C1CCCNC(=O)c2ccc(cc2)Nc2nc(nc(OCC(F)(F)F)n2)NCc2ccc(cc2)OCC=CCS(=O)(=O)N1` [Example 3010], the EC50 reads like this: under setting [1], 0.1 to 100 nM; under setting [2], 20.3 nM.
Regarding `O=C1CCCC(=O)NCc2ccc(cc2)Nc2nc(nc(OCC(F)(F)F)n2)NCc2ccc(cc2)CN1` [Example 0061], under setting [1], the EC50 was 100 to 1000 nM.
Take `CCNC(=O)N1CCCCNC(=O)c2ccc(cc2)Nc2nc(nc(OCC(F)(F)F)n2)NCc2ccc(cc2)OCC1` [Example 4007]: the EC50 under setting [1] fell in the range of 0.1 to 100 nM.
